From patent US10947188B2, “Small molecule ferroptosis inducers” (THE TRUSTEES OF COLUMBIA UNIVERSITY IN THE CITY OF NEW YORK, priority 2016, dated 2021)

Assays:
BJeLR = assay: Modulatory profiling: Alamar Blue viability, lethal compound cotreated with death modulator (EC50, AUC); type: cell-based, human; set-up: AUC, modulator BJ.Gd3+ / AUC, modulator BJ.LNAME / AUC, modulator BJ.Lmin / AUC, modulator BJ.3MA / AUC, modulator BJ.ALLN / AUC, modulator BJ.Boc D / AUC, modulator BJ.CHX / AUC, modulator BJ.Co2+ / AUC, modulator BJ.Nec-1 / AUC, modulator BJ.Pepstatin / AUC, modulator BJ.TLCK / AUC, modulator BJ.atoc / AUC, modulator BJ.trolox / AUC, modulator BJ.zVAD: unit not given beside the values; details: BJeLR cells, modulatory profile value (AUC); for AUC, modulator BJ.3MA: lethal compound cotreated with modulator 3MA; for AUC, modulator BJ.ALLN: lethal compound cotreated with modulator ALLN; for AUC, modulator BJ.Boc D: lethal compound cotreated with modulator Boc D; for AUC, modulator BJ.CHX: lethal compound cotreated with modulator CHX; for AUC, modulator BJ.Co2+: lethal compound cotreated with modulator Co2+; for AUC, modulator BJ.DPQ: lethal compound cotreated with modulator DPQ; for AUC, modulator BJ.Gd3+: lethal compound cotreated with modulator Gd3+; for AUC, modulator BJ.LNAME: lethal compound cotreated with modulator LNAME; for AUC, modulator BJ.Lmin/NAD+: lethal compound cotreated with modulator Lmin/NAD+; for AUC, modulator BJ.Lmin: lethal compound cotreated with modulator Lmin; for AUC, modulator BJ.NAD+: lethal compound cotreated with modulator NAD+; for AUC, modulator BJ.NMMA: lethal compound cotreated with modulator NMMA; for AUC, modulator BJ.Nec-1: lethal compound cotreated with modulator Nec-1; for AUC, modulator BJ.Pepstatin: lethal compound cotreated with modulator Pepstatin; for AUC, modulator BJ.TLCK: lethal compound cotreated with modulator TLCK; for AUC, modulator BJ.3MA: reference of the scale not given here; for AUC, modulator BJ.ALLN: reference of the scale not given here; for AUC, modulator BJ.Boc D: reference of the scale not given here; for AUC, modulator BJ.CHX: reference of the scale not given here; for AUC, modulator BJ.Co2+: reference of the scale not given here; for AUC, modulator BJ.DPQ: reference of the scale not given here; for AUC, modulator BJ.Gd3+: reference of the scale not given here; for AUC, modulator BJ.LNAME: reference of the scale not given here; for AUC, modulator BJ.NAD+: reference of the scale not given here; for AUC, modulator BJ.NMMA: reference of the scale not given here; for AUC, modulator BJ.Nec-1: reference of the scale not given here; for AUC, modulator BJ.Pepstatin: reference of the scale not given here; for AUC, modulator BJ.TLCK: reference of the scale not given here
HT-1080 = assay: as above; type: cell-based; set-up: AUC, modulator HT.3MA / AUC, modulator HT.ALLN / AUC HT.ATA / AUC HT.ActD / AUC HT.BHA / AUC HT.BHT / AUC HT.BocD / AUC HT.CHX / AUC HT.Co2+ / AUC HT.DPQ / AUC HT.EGTA / AUC HT.Lmim / AUC HT.NAD+ / AUC HT.Nec-1 / AUC HT.SP600125 / AUC HT.TLCK / AUC HT.U0126: unit not given beside the values; details: for AUC HT.ATA: HT-1080, modulator ATA; for AUC HT.ActD: HT-1080, modulator ActD; for AUC HT.BHA: HT-1080, modulator BHA; for AUC HT.BHT: HT-1080, modulator BHT; for AUC HT.BocD: HT-1080, modulator BocD; for AUC HT.CHX: HT-1080, modulator CHX; for AUC HT.Co2+: HT-1080, modulator Co2+; for AUC HT.CspA: HT-1080, modulator CspA; for AUC HT.DPQ: HT-1080, modulator DPQ; for AUC HT.EGTA: HT-1080, modulator EGTA; for AUC HT.Gd3+: HT-1080, modulator Gd3+; for AUC HT.LNAME: HT-1080, modulator LNAME; for AUC HT.Lmim: HT-1080, modulator Lmim; for AUC HT.NAD+: HT-1080, modulator NAD+; for AUC HT.NMMA: HT-1080, modulator NMMA; for HT.atoc (AUC) / HT.bCarotene (AUC) / HT.deferox (AUC) / HT.digoxin (AUC) / HT.trolox (AUC) / HT.zVAD (AUC): HT-1080; for HT.atoc (AUC): modulator atoc; for HT.bCarotene (AUC): modulator bCarotene; for HT.deferox (AUC): modulator deferox; for HT.digoxin (AUC): modulator digoxin; for HT.trolox (AUC): modulator trolox; for HT.zVAD (AUC): modulator zVAD; for AUC HT.BHA: reference of the scale not given here; for AUC HT.EGTA: reference of the scale not given here

Row | SMILES | AUC, modulator BJ.3MA (BJeLR) | AUC, modulator BJ.ALLN (BJeLR) | AUC, modulator BJ.Boc D (BJeLR) | AUC, modulator BJ.CHX (BJeLR) | AUC, modulator BJ.Co2+ (BJeLR) | AUC, modulator BJ.DPQ (BJeLR) | AUC, modulator BJ.Gd3+ (BJeLR) | AUC, modulator BJ.LNAME (BJeLR) | AUC, modulator BJ.Lmin/NAD+ (BJeLR) | AUC, modulator BJ.Lmin (BJeLR) | AUC, modulator BJ.NAD+ (BJeLR) | AUC, modulator BJ.NMMA (BJeLR) | AUC, modulator BJ.Nec-1 (BJeLR) | AUC, modulator BJ.Pepstatin (BJeLR) | AUC, modulator BJ.TLCK (BJeLR) | AUC HT.ATA (HT-1080) | AUC HT.ActD (HT-1080) | AUC HT.BHA (HT-1080) | AUC HT.BHT (HT-1080) | AUC HT.BocD (HT-1080) | further results
1 | CN(C)CCNC(=O)c1cc2c(s1)-c1ccc(Cl)cc1SC2 [CIL55] | 0.06354 | −0.04685 | −0.01499 | 0.0373 | 0.03522 | 0.01735 | 0.003555 | −0.02008 | 0.1924 | 0.08143 | 0.02772 | −0.002759 | 0.09849 | 0.02873 | 0.07378 | 0.05195 | −0.0079 | 0.09593 | 0.04919 | 0.01568 | AUC HT.CHX (HT-1080): −0.01039; AUC HT.Co2+ (HT-1080): 0.1152; AUC HT.CspA (HT-1080): −0.007883; AUC HT.DPQ (HT-1080): 0.01405; AUC HT.EGTA (HT-1080): 0.04877; AUC HT.Gd3+ (HT-1080): −0.01479; AUC HT.LNAME (HT-1080): 0.007171; AUC HT.Lmim (HT-1080): 0.07005; AUC HT.NAD+ (HT-1080): 0.03996; AUC HT.NMMA (HT-1080): 0.004761; HT.atoc (AUC) (HT-1080): 0.2074; HT.bCarotene (AUC) (HT-1080): 0.001297; HT.deferox (AUC) (HT-1080): 0.1108; HT.digoxin (AUC) (HT-1080): −0.0491; HT.trolox (AUC) (HT-1080): 0.1469; HT.zVAD (AUC) (HT-1080): 0.0266
2 | O=C(Oc1ccc(Cl)c2cccnc12)c1ccco1 [CIL58] | 0.03403 | 0.01846 | −0.007995 | −0.04911 | 0.2386 | 0.009922 | 0.02131 | −0.02811 | 0.02713 | −0.009172 | 0.02238 | −0.05299 | 0.0983 | 0.07532 | 0.1505 | 0.05141 | 0.02044 | −0.03989 | −0.1355 | −0.02082 | AUC HT.CHX (HT-1080): −0.05674; AUC HT.Co2+ (HT-1080): 0.09509; AUC HT.CspA (HT-1080): 0.06761; AUC HT.DPQ (HT-1080): −0.005922; AUC HT.EGTA (HT-1080): 0.05184; AUC HT.Gd3+ (HT-1080): −0.004674; AUC HT.LNAME (HT-1080): −0.09982; AUC HT.Lmim (HT-1080): −0.07257; AUC HT.NAD+ (HT-1080): −0.06539; AUC HT.NMMA (HT-1080): −0.09083; HT.atoc (AUC) (HT-1080): 0.03305; HT.bCarotene (AUC) (HT-1080): 0.08558; HT.deferox (AUC) (HT-1080): 0.08912; HT.digoxin (AUC) (HT-1080): 0.0229; HT.trolox (AUC) (HT-1080): −0.04791; HT.zVAD (AUC) (HT-1080): 0.02459
3 | Cc1cccc(Cn2ncc(Cl)c(Cl)c2=O)c1 [CIL60] | 0.06736 | −0.004197 | 0.02626 | 0.1803 | 0.03836 | 0.02057 | 0.02704 | −0.01542 | 0.05888 | 0.04196 | 0.05735 | −0.03338 | 0.08176 | 0.1359 | −0.06705 | 0.07052 | 0.04832 | −0.0006407 | −0.1303 | −0.04051 | AUC HT.CHX (HT-1080): 0.112; AUC HT.Co2+ (HT-1080): −0.08003; AUC HT.CspA (HT-1080): −0.004831; AUC HT.DPQ (HT-1080): 0.02073; AUC HT.EGTA (HT-1080): 0.05296; AUC HT.Gd3+ (HT-1080): −0.0163; AUC HT.LNAME (HT-1080): 0.004397; AUC HT.Lmim (HT-1080): 0.03464; AUC HT.NAD+ (HT-1080): 0.01526; AUC HT.NMMA (HT-1080): −0.01091; HT.atoc (AUC) (HT-1080): 0.08708; HT.bCarotene (AUC) (HT-1080): 0.04979; HT.deferox (AUC) (HT-1080): 0.07702; HT.digoxin (AUC) (HT-1080): −0.03602; HT.trolox (AUC) (HT-1080): −0.0265; HT.zVAD (AUC) (HT-1080): −0.009922
